{"source": "patent US20090221530A1", "about": "“Relaxase Modulators and Methods of Using Same” (priority 2005, published 2009)", "assay_in_all_cases": "microbe, parasite or virus in culture", "type_in_all_cases": "cell-based, E. coli", "key": {"F− recipient cells": {"system": "F− recipient cells", "conditions": "for EC50: Escherichia coli, 100 min, vs. F− recipient cells, read-out: 100 minute EC50; for Selectivities by EC50, Donors: listed as vs. F− recipient cells relative to donors; for Selectivities by EC50, Transconj.: listed as vs. F− recipient cells relative to transconjugants", "description": "(§1) A 96-well fluorescence-based assay using oxygen biosensor plates (Becton Dickinson, Franklin Lakes, N.J., U.S.A.) was employed to monitor bacterial cell survival. FIG. 7 schematically illustrates the assay mechanism of action. […] In the absence of viable bacteria, however, no fluorescence emission is detected because the fluorophore is quenched by free oxygen. The assay can further be utilized to measure conjugative DNA transfer.\n(§2) Relaxase-dependent cell survival was examined by placing cultures of F+/TraI+ E. coli cells (with antibiotic resistance, e.g., Ab^r1, on a non-conjugative plasmid) within wells and exposing them to putative inhibitory compounds. […] Negative controls for this assay can be F− (Ab^r2) cells and F+ cells (Ab^r1) containing either no F plasmid relaxase (TraI) gene, or a TraI harboring catalytic tyrosine to phenylalanine mutations; in both cases, these control cells should be resistant to relaxase-dependent cell toxicity. […] Fluorescence can be measured using a PHERASTAR™ fluorescence plate reader (BMG LABTECH, Offenburg, Germany) over 8 hours time."}, "F+ donor cells": {"system": "F+ donor cells", "conditions": "for EC50: Escherichia coli, 100 min, vs. F+ donor cells, read-out: 100 minute EC50; for Selectivities by EC50, Transconj.: listed as vs. F+ donor cells relative to transconjugants", "description": "as §1, §2"}, "transconjugants": {"system": "transconjugants", "conditions": "for EC50: Escherichia coli, 100 min, read-out: 100 minute EC50, vs. transconjugants; for Selectivities by EC50, Donors: listed as vs. transconjugants relative to donors", "description": "as §1, §2"}, "[1]": {"conditions": "first EC50 block, mass concentration"}, "[2]": {"conditions": "second block, mass concentration"}}, "note": "Where two headings read alike, the source gives them in different places."}
{"smiles": "O=P(O)(O)NP(=O)(O)O", "note": "[pNp, imidodiphosphate]", "values": [{"measurement": "EC50", "setting": "F− recipient cells; [1]", "value": 105, "unit": "µg/mL"}, {"measurement": "EC50", "setting": "F− recipient cells; first EC50 block", "value": "0.593 ± 0.0035", "unit": "mM"}, {"measurement": "EC50", "setting": "F− recipient cells; [2]", "value": 6000, "unit": "µg/mL"}, {"measurement": "EC50", "setting": "F− recipient cells; second block", "value": 35, "unit": "mM"}, {"measurement": "Selectivities by EC50, Donors", "setting": "F− recipient cells; first EC50 block", "value": "1.7E+03"}, {"measurement": "Selectivities by EC50, Donors", "setting": "F− recipient cells; second block", "value": "8.0E−01"}, {"measurement": "Selectivities by EC50, Transconj.", "setting": "F− recipient cells; first EC50 block", "value": "1.1E+02"}, {"measurement": "Selectivities by EC50, Transconj.", "setting": "F− recipient cells; second block", "value": "4.0E−00"}, {"measurement": "EC50", "setting": "F+ donor cells; [1]", "value": 0.063, "unit": "µg/mL"}, {"measurement": "EC50", "setting": "F+ donor cells; first EC50 block", "value": 0.000356, "unit": "mM"}, {"measurement": "EC50", "setting": "F+ donor cells; [2]", "value": 8000, "unit": "µg/mL"}, {"measurement": "EC50", "setting": "F+ donor cells; second block", "value": 43, "unit": "mM"}, {"measurement": "Selectivities by EC50, Transconj.", "setting": "F+ donor cells; first EC50 block", "value": "6.7E−02"}, {"measurement": "Selectivities by EC50, Transconj.", "setting": "F+ donor cells; second block", "value": "4.9E+00"}, {"measurement": "EC50", "setting": "transconjugants; first EC50 block", "value": 0.005, "unit": "mM"}, {"measurement": "EC50", "setting": "transconjugants; [1]", "value": 0.936, "unit": "µg/mL"}, {"measurement": "EC50", "setting": "transconjugants; second block", "value": 9, "unit": "mM"}, {"measurement": "EC50", "setting": "transconjugants; [2]", "value": 2000, "unit": "µg/mL"}, {"measurement": "Selectivities by EC50, Donors", "setting": "transconjugants; first EC50 block", "value": "1.5E+01"}, {"measurement": "Selectivities by EC50, Donors", "setting": "transconjugants; second block", "value": "2.0E−01"}]}
